± gives the standard deviation of the averaged measurements.
Legend:
Assay in all cases: relative cell number vs DMSO control (72 h) (% of DMSO); higher = less growth inhibition (more cells)
Settings in all cases: sgRNA knockout: sgNT
[1] = test system: BT-20
Experimental: (§1)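 QMAP-Seq: a pool of 5 breast cancer cell lines (ZR-75-1, SKBR3, HCC-38, MDA-MB-231, BT-20), each carrying 12 doxycycline-inducible Cas9 sgRNA perturbations (11 knockouts plus non-targeting sgNT), was treated with compounds for 72 h at four 10-fold doses (10 nM-10 uM or 1 nM-1 uM range). Barcodes were amplified and sequenced, and cell number was interpolated from 293T spike-in standard curves. The result is expressed as % of the median of DMSO wells. Two biological replicates.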

[2] = test system: HCC-38
Experimental: as §1

[3] = test system: MDA-MB-231
Experimental: as §1

[4] = test system: SKBR3
Experimental: as §1

[5] = test system: ZR-75-1
Experimental: as §1

| Structure (SMILES) | relative cell number ([1]; 10 nM) | relative cell number ([1]; 100 nM) | relative cell number ([1]; 1000 nM) | relative cell number ([1]; 10000 nM) | relative cell number ([2]; 10 nM) | relative cell number ([2]; 100 nM) | relative cell number ([2]; 1000 nM) | relative cell number ([2]; 10000 nM) | relative cell number ([3]; 10 nM) | relative cell number ([3]; 100 nM) | relative cell number ([3]; 1000 nM) | relative cell number ([3]; 10000 nM) | relative cell number ([4]; 10 nM) | relative cell number ([4]; 100 nM) | relative cell number ([4]; 1000 nM) | relative cell number ([4]; 10000 nM) | relative cell number ([5]; 10 nM) | relative cell number ([5]; 100 nM) | relative cell number ([5]; 1000 nM) | relative cell number ([5]; 10000 nM) |
| --- | --- | --- | --- | --- | --- | --- | --- | --- | --- | --- | --- | --- | --- | --- | --- | --- | --- | --- | --- | --- |
| Cc1cc(N2CCOCC2)cc2[nH]c(-c3c(NC[C@@H](O)c4cccc(Cl)c4)cc[nH]c3=O)nc12 | 70.9 ± 10 | 88.3 ± 11 | 94 ± 14 | 67.4 ± 17 | 94.97 ± 0.84 | 89.4 ± 24 | 93.6 ± 7.3 | 30.7 ± 3.4 | 85.2 ± 7.6 | 76.6 ± 42 | 77.5 ± 2.4 | 15 ± 2.3 | 107 ± 3.5 | 73 ± 16 | 60 ± 15 | 60.3 ± 12 | 78.8 ± 51 | 53.3 ± 10 | 84.2 ± 8.8 | 13.7 ± 10 |
| Cc1ccc(C(=O)N(CCCN)[C@@H](c2oc3cc(Cl)ccc3c(=O)c2Cc2ccccc2)C(C)C)cc1 | 29.6 ± 8.5 | 27.7 ± 4.7 | 33.7 ± 11 | 5.17 ± 2.2 | 24 ± 0.85 | 27.8 ± 8.2 | 28.9 ± 4.7 | 5.58 ± 0.82 | 23 ± 9 | 16.8 ± 5.6 | 17.2 ± 11 | 4.71 ± 1.3 | 15.6 ± 15 | 11.3 ± 1.2 | 15.3 ± 5.2 | 5.26 ± 4.4 | 26.5 ± 2.3 | 21.8 ± 0.36 | 27.9 ± 5.1 | 3 ± 1.2 |
| Cc1ccc(S(=O)(=O)OCC(=O)Nc2ccc(C(=O)O)c(O)c2)cc1 | 101 ± 26 | 115 ± 40 | 108 ± 17 | 95.6 ± 33 | 119 ± 7.6 | 102 ± 1.3 | 91.8 ± 5.4 | 89.6 ± 9.3 | 128 ± 26 | 61.9 ± 5.4 | 117 ± 20 | 86.1 ± 20 | 83.3 ± 40 | 77.3 ± 3.9 | 93.7 ± 14 | 116 ± 58 | 91.2 ± 35 | 68.9 ± 12 | 99.1 ± 36 | 103 ± 8.6 |
| Cc1ccccc1-n1c(Cn2cnc3c(N)ncnc32)nc2cccc(C)c2c1=O | 110 ± 2.1 | 133 ± 22 | 102 ± 15 | 113 ± 5.9 | 97.9 ± 27 | 104 ± 18 | 102 ± 12 | 95.6 ± 8.2 | 123 ± 7.7 | 128 ± 20 | 101 ± 9 | 153 ± 48 | 104 ± 11 | 107 ± 12 | 101.8 ± 0.55 | 93.3 ± 7.2 | 112 ± 23 | 98.5 ± 40 | 71.4 ± 14 | 105 ± 6 |
| Cc1cnc(-c2cnc(NCCNc3ccc(C#N)cn3)nc2-c2ccc(Cl)cc2Cl)[nH]1 | 110 ± 4.5 | 103 ± 19 | 73.6 ± 3.6 | 106 ± 22 | 98.4 ± 21 | 89.08 ± 0.19 | 104 ± 2.4 | 126.9 ± 0.6 | 88.2 ± 11 | 92.2 ± 8.4 | 79.9 ± 25 | 72.7 ± 21 | 99.6 ± 12 | 91.2 ± 2.6 | 73.7 ± 18 | 85.9 ± 40 | 104 ± 21 | 85.3 ± 13 | 66.2 ± 15 | 77.1 ± 10 |
| Cc1cnc(Nc2ccc(OCCN3CCCC3)cc2)nc1Nc1cccc(S(=O)(=O)NC(C)(C)C)c1 | 99.9 ± 19 | 92.6 ± 1.8 | 81.3 ± 12 | 42.5 ± 4.4 | 99.1 ± 2.6 | 90.301 ± 0.055 | 68.7 ± 8.1 | 11.7 ± 2.2 | 88.9 ± 26 | 116 ± 5.9 | 64.9 ± 6.9 | 5.85 ± 0.9 | 89 ± 48 | 68.7 ± 15 | 75.4 ± 15 | 16.9 ± 0.89 | 105 ± 22 | 108 ± 2.4 | 71.3 ± 26 | 10.8 ± 5.8 |
| Cc1nc(Nc2n[nH]c3c2CN(C(=O)N[C@H](CN(C)C)c2ccccc2)C3(C)C)c2sccc2n1 | 77.3 ± 21 | 46 ± 2.4 | 31.8 ± 6.6 | 11.6 ± 6.4 | 64.9 ± 5 | 54.5 ± 3.9 | 31.5 ± 1.2 | 13.5 ± 5.3 | 35.5 ± 11 | 27.3 ± 6.1 | 13.4 ± 6.6 | 4.59 ± 3.4 | 60.9 ± 22 | 52.5 ± 9 | 21.3 ± 0.55 | 3.5 ± 2.2 | 40.4 ± 14 | 49.8 ± 19 | 25.6 ± 4.3 | 3.38 ± 1.2 |
| N#Cc1ccc(COC[C@H]2O[C@@H](n3c(NCc4ccc(Cl)c(Cl)c4)nc4c(N)ncnc43)[C@H](O)[C@@H]2O)cc1 | 108 ± 25 | 92.7 ± 6.8 | 91.1 ± 26 | 73.2 ± 18 | 90.8 ± 12 | 99.2 ± 8.1 | 99.1 ± 19 | 93.9 ± 15 | 83.77 ± 0.66 | 98.3 ± 7 | 115 ± 28 | 28.9 ± 0.7 | 105 ± 14 | 139 ± 29 | 106 ± 24 | 60.1 ± 4.3 | 105 ± 48 | 90.5 ± 13 | 64.7 ± 41 | 39.1 ± 0.67 |
| O=C(NOCC(O)CO)c1cc(Br)c(F)c(F)c1Nc1ccc(I)cc1F (stereo not given) | 86.8 ± 14 | 86.9 ± 14 | 94.1 ± 9.3 | 83.5 ± 7.2 | 85.4 ± 6.8 | 83.2 ± 6.4 | 81.8 ± 3.8 | 86.2 ± 8.4 | 105 ± 17 | 75.8 ± 19 | 56.5 ± 25 | 47.5 ± 17 | 118 ± 48 | 123 ± 58 | 112 ± 36 | 83.5 ± 34 | 83.5 ± 48 | 76.9 ± 7.1 | 71.2 ± 4.6 | 56.5 ± 2.3 |
| O=C1NC(=O)/C(=C/c2ccc3nccc(-c4ccncc4)c3c2)S1 | 92.4 ± 28 | 81.1 ± 9.8 | 62.2 ± 16 | 46.5 ± 18 | 95.7 ± 5 | 85.8 ± 11 | 87.5 ± 1.1 | 42.38 ± 0.22 | 79.8 ± 14 | 87.5 ± 0.95 | 96 ± 18 | 54.1 ± 2.6 | 112 ± 35 | 123 ± 53 | 90.9 ± 9.8 | 34.7 ± 6.4 | 78.3 ± 2.5 | 128 ± 6.6 | 99 ± 38 | 38.6 ± 7.8 |
| O=c1cc(-c2cccc3c2Sc2ccccc2S3)oc(N2CCOCC2)c1 | 76.9 ± 1.4 | 116 ± 4.1 | 110.8 ± 0.94 | 109 ± 22 | 91.6 ± 7.9 | 79.2 ± 1.7 | 88.4 ± 18 | 82.7 ± 9.9 | 119 ± 4.4 | 77.3 ± 7.3 | 89.5 ± 12 | 46.8 ± 19 | 85.1 ± 17 | 94.4 ± 12 | 115 ± 17 | 54.3 ± 6.1 | 81.3 ± 28 | 98.8 ± 25 | 75.5 ± 26 | 58.3 ± 15 |
| OCc1ccc(-c2ccc(-c3ccc(CO)s3)o2)s1 | 110 ± 32 | 77.9 ± 13 | 24.9 ± 1.5 | 12.3 ± 6.7 | 118 ± 10 | 119 ± 4.3 | 110 ± 18 | 63.6 ± 18 | 117 ± 27 | 118 ± 5.9 | 102 ± 7.9 | 40 ± 2.9 | 84.8 ± 34 | 15.6 ± 0.84 | 10.9 ± 4.8 | 5.65 ± 0.36 | 59.9 ± 6 | 9.97 ± 1.1 | 10.6 ± 4.2 | 4.09 ± 1.8 |
| CC/C(=C(\c1ccc(O)cc1)c1ccc(OCCN(C)C)cc1)c1ccccc1 [4-Hydroxytamoxifen] | 96.8 ± 8.9 | 88.3 ± 28 | 106 ± 10 | 74.5 ± 21 | 94.8 ± 10 | 93.2 ± 5.7 | 90.4 ± 20 | 81.5 ± 14 | 95.8 ± 17 | 88.2 ± 7.9 | 100 ± 3.5 | 96.2 ± 9 | 104 ± 19 | 100 ± 45 | 80 ± 2.2 | 40.6 ± 10 | 95.8 ± 9.6 | 61.5 ± 4.8 | 70.2 ± 15 | 34.6 ± 8.6 |

From the supplement of paper PMC7661543
